According to the supplement of paper PMC10307832:

How the values were obtained:
Assay in all cases: relative viability (nuclei count vs DMSO), 5 days (fraction); higher = more cells survive
[1] = compound: C(C(=O)C(=O)O)Br [Bromopyruvate] + CS(=O)(=O)N1CCN(Cc2cc3nc(-c4cccc5[nH]ncc45)nc(N4CCOCC4)c3s2)CC1 [Pictilisib] (partner 1 µM)
Outline: (§1)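 Cells from lung cancer lines were seeded into 1536-well plates and, one day later, dosed by pin tool. Treatments were either a single drug or a fixed dose of an anchor drug with five library-drug doses (not always all listed) in √10 steps. After 5 days, nuclei were stained in a one-step fixation (final 0.05% Triton X-100, 1% formaldehyde, 1 ug/ml Hoechst) and counted on 4× images, and relative viability is the treated-to-vehicle nuclei ratio, as the median of duplicate plates.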

[2] = compound: CC(O)(CS(=O)(=O)c1ccc(F)cc1)C(=O)Nc1ccc(C#N)c(C(F)(F)F)c1 [Bicalutamide] + CC(=O)Nc1cccc(-n2c(=O)n(C3CC3)c(=O)c3c(Nc4ccc(I)cc4F)n(C)c(=O)c(C)c32)c1 [Trametinib] (partner 0.02 µM)
Outline: as §1

[3] = compound: C(C(=O)C(=O)O)Br [Bromopyruvate] + Nc1ncn([C@H]2C[C@H](O)[C@@H](CO)O2)c(=O)n1 [Decitabine] (partner 2 µM)
Outline: as §1

Bicalutamide + AZD7762 = compound: CC(O)(CS(=O)(=O)c1ccc(F)cc1)C(=O)Nc1ccc(C#N)c(C(F)(F)F)c1 [Bicalutamide] + NC(=O)Nc1cc(-c2cccc(F)c2)sc1C(=O)N[C@H]1CCCNC1 [AZD7762] (partner 0.2 µM)
Outline: as §1

| Cell Line | relative viability ([1]; first compound 1 µM) | relative viability ([1]; first compound 3.162 µM) | relative viability ([1]; first compound 10 µM) | relative viability ([1]; first compound 31.62 µM) | relative viability ([1]; first compound 100 µM) | relative viability ([2]; first compound 0.08 µM) | relative viability ([2]; first compound 0.253 µM) | relative viability ([2]; first compound 0.8 µM) | relative viability ([2]; first compound 2.53 µM) | relative viability ([3]; first compound 1 µM) | relative viability ([3]; first compound 3.162 µM) | relative viability ([3]; first compound 10 µM) | relative viability ([3]; first compound 31.62 µM) | relative viability ([3]; first compound 100 µM) | relative viability (Bicalutamide + AZD7762; first compound 0.08 µM) | relative viability (Bicalutamide + AZD7762; first compound 0.253 µM) | relative viability (Bicalutamide + AZD7762; first compound 0.8 µM) | relative viability (Bicalutamide + AZD7762; first compound 2.53 µM) |
| --- | --- | --- | --- | --- | --- | --- | --- | --- | --- | --- | --- | --- | --- | --- | --- | --- | --- | --- |
| 201T | 0.724 | 0.692 | 0.626 | 0.683 | 0.7 | 0.703 | 0.725 | 0.7 | 0.738 | 0.882 | 0.835 | 0.849 | 0.85 | 0.928 | 0.637 | 0.408 | 0.586 | 0.599 |
| A549 | 0.479 | 0.629 | 0.489 | 0.494 | 0.6 | – | – | – | – | 0.225 | 0.271 | 0.36 | 0.308 | 0.266 | – | – | – | – |
| A-427 | 0.678 | 0.809 | 0.483 | 0.746 | 0.718 | 0.782 | 0.731 | 0.845 | 0.688 | 0.581 | 0.567 | 0.612 | 0.631 | 0.568 | 0.807 | 0.677 | 0.855 | 0.583 |
| ABC-1 | 0.573 | 0.881 | – | 0.849 | 0.686 | – | – | – | – | 0.888 | – | – | – | 0.885 | 0.828 | 0.572 | 1.02 | 0.772 |
| BEN | 0.64 | 0.505 | 0.63 | 0.552 | 0.508 | 1.05 | 0.94 | 1.17 | 1.1 | 0.726 | 0.685 | 0.773 | 0.617 | 0.674 | 0.742 | 0.563 | 0.874 | 0.675 |
| CAL-12T | 0.431 | 0.394 | 0.534 | 0.309 | 0.569 | 0.37 | 0.343 | 0.398 | 0.264 | – | – | – | – | – | 0.729 | 0.655 | 0.703 | 0.68 |
| COR-L23 | 0.763 | 0.772 | 0.98 | 0.673 | 0.524 | 0.616 | 0.545 | 0.71 | 0.579 | 0.407 | 0.404 | 0.469 | 0.379 | 0.281 | – | – | – | – |
| COR-L 105 | 0.524 | 0.371 | 0.361 | 0.434 | 0.379 | 0.397 | 0.371 | 0.383 | 0.381 | 0.59 | 0.674 | 0.75 | 0.706 | 0.525 | – | – | – | – |
| Calu-6 | 0.898 | 0.958 | 0.966 | 0.743 | 0.829 | – | – | – | – | – | – | – | – | – | – | – | – | – |
| ChaGo-K-1 | 0.978 | 0.766 | 0.581 | 0.685 | 0.622 | 0.854 | 0.865 | 1.03 | 0.926 | 0.554 | 0.525 | 0.609 | 0.529 | 0.486 | 0.883 | 0.792 | 0.944 | 0.858 |
| EBC-1 | 0.374 | 0.467 | 0.412 | 0.42 | 0.415 | – | – | – | – | – | – | – | – | – | – | – | – | – |
| EKVX | 0.412 | 0.437 | 0.444 | 0.458 | 0.472 | 0.319 | 0.31 | 0.359 | 0.283 | 0.36 | 0.353 | 0.319 | 0.371 | 0.331 | 0.693 | 0.613 | 0.797 | 0.664 |
| EMC-BAC-2 | 0.472 | 0.557 | 0.572 | 0.539 | 0.622 | 0.911 | 0.771 | 0.891 | 0.728 | 0.918 | 1.04 | 1 | – | 0.921 | 1.05 | 1 | 1.09 | 0.735 |
| EPLC-272H | 0.32 | 0.363 | 0.266 | 0.323 | 0.296 | 0.315 | 0.281 | 0.332 | 0.281 | 0.371 | 0.376 | 0.426 | 0.437 | 0.389 | 0.155 | 0.297 | 0.215 | 0.239 |
| H3255 | 0.479 | 0.503 | 0.45 | 0.519 | 0.588 | 0.666 | 0.567 | 0.717 | 0.569 | 0.514 | 0.705 | 0.794 | 0.609 | 0.622 | 0.949 | 0.791 | 1.11 | 0.823 |
| HARA | 0.276 | 0.47 | 0.332 | 0.485 | 0.449 | 0.942 | – | 0.634 | 0.48 | 0.624 | 0.572 | – | 0.545 | 0.558 | 0.382 | – | 0.368 | 0.262 |
| HCC-15 | 0.719 | 0.719 | 0.808 | 0.732 | 0.7 | 0.384 | 0.338 | 0.412 | 0.371 | 0.614 | 0.625 | 0.615 | 0.659 | 0.568 | 1.07 | 1.05 | 1.2 | 1.09 |
| HCC-44 | 0.697 | 0.625 | 0.693 | 0.66 | 0.671 | 1.16 | 1.09 | 1.07 | 1.1 | 0.987 | 0.926 | 0.895 | 0.943 | 0.908 | 1.02 | 1.05 | 1.02 | 1.01 |
